Assay results as given in ChEMBL document CHEMBL1147392, “Antimicrobial compounds from Petalostemum purpureum” (1993).
≈ marks a conversion by molar mass, not a printed value.

What was measured:
[1] = tested on: Mycobacterium intracellulare; assay: Antimicrobial activity against Mycobacterium intracellular ATCC 23068 by twofold serial macrobroth dilution assay; format: functional
Staphylococcus aureus = assay: Antimicrobial activity against Staphylococcus aureus ATCC 6538 by twofold serial macrobroth dilution assay
Candida albicans = assay: Antimicrobial activity against Candida albicans NIH B311 by twofold serial macrobroth dilution assay; format: functional
Cryptococcus neoformans = assay: Antimicrobial activity against Cryptococcus neoformans ATCC 32264 by twofold serial macrobroth dilution assay; format: functional
Bacillus subtilis = assay: Antimicrobial activity against Bacillus subtilis ATCC 6633 by twofold serial macrobroth dilution assay; format: functional
Escherichia coli = assay: Antimicrobial activity against Escherichia coli ATCC 10536 by twofold serial macrobroth dilution assay; format: functional

Row | MIC [1] [µg/mL] | MIC (Staphylococcus aureus) [µg/mL] | MIC (Candida albicans) [µg/mL] | Structure (SMILES) | MIC (Cryptococcus neoformans) [µg/mL] | MIC (Bacillus subtilis) [µg/mL] | MIC (Escherichia coli) [µg/mL]
1 | 12.5 (≈ 22.1 µM) | 12.5 (≈ 22.1 µM) | 100 (≈ 177 µM) | COc1cc(OC)c2c(c1CC=C(C)C)O[C@H](c1c(CC=C(C)C)cc(OC)c(OC)c1CC=C(C)C)[C@@H](O)C2=O | – | – | –
2 | 25 (≈ 46.6 µM) | – | – | COc1cc(CC=C(C)C)c([C@H]2Oc3c(CC=C(C)C)c(OC)cc(O)c3C(=O)[C@@H]2O)c(CC=C(C)C)c1O | – | – | –
3 | 6.25 (≈ 12.3 µM) | 3.12 (≈ 6.13 µM) | 12.5 (≈ 24.6 µM) | CC(C)=CCc1cc(O)c(O)c(CC=C(C)C)c1[C@H]1Oc2c(CC=C(C)C)c(O)cc(O)c2C(=O)[C@@H]1O [PETALOSTEMUMOL] | 25 (≈ 49.2 µM) | 0.78 (≈ 1.53 µM) | 6.25 (≈ 12.3 µM)

Continued, compound first:

Row | Structure (SMILES) | MIC [1] [µg/mL] | MIC (Staphylococcus aureus) [µg/mL] | MIC (Candida albicans) [µg/mL] | MIC (Cryptococcus neoformans) [µg/mL] | MIC (Bacillus subtilis) [µg/mL] | MIC (Escherichia coli) [µg/mL]
4 | COc1cc(CC=C(C)C)c(-c2oc3c(CC=C(C)C)c(OC)cc(OC)c3c(=O)c2OC)c(CC=C(C)C)c1OC | 25 (≈ 43.3 µM) | 12.5 (≈ 21.7 µM) | 25 (≈ 43.3 µM) | – | – | –
5 | C[C@@H]1[C@H](O)[C@@H](C)/C=C/C=C/C=C/C=C/C=C/C=C/C=C/[C@H](O[C@@H]2O[C@H](C)[C@@H](O)[C@H](N)[C@@H]2O)C[C@@H]2O[C@](O)(C[C@@H](O)C[C@@H](O)[C@H](O)CC[C@@H](O)C[C@@H](O)CC(=O)O[C@H]1C)C[C@H](O)[C@H]2C(=O)O [AMPHOTERICIN B] | – | – | 0.39 (≈ 0.422 µM) | 0.2 (≈ 0.216 µM) | – | –
6 | CN[C@@H]1[C@H](O[C@H]2[C@H](O[C@H]3[C@H](O)[C@@H](O)[C@H](N=C(N)N)[C@@H](O)[C@@H]3N=C(N)N)O[C@@H](C)[C@]2(O)C=O)O[C@@H](CO)[C@H](O)[C@H]1O [STREPTOMYCIN] | 1.56 (≈ 2.68 µM) | 6.25 (≈ 10.7 µM) | – | – | 1.56 (≈ 2.68 µM) | 3.12 (≈ 5.36 µM)
